Counter-ions that a name gives are not always drawn.
Tests used:
[1] = molecular target: T1, human erythrocytes' acetyl cholinesterase (Homo sapiens, UniProt P22303); assay: acetyl cholinesterase fluorescent activity assay; type: biochemical; details: human erythrocytes' acetyl cholinesterase 25 mU/mL, FIGS. 2-4
T1 construct: from tissue; host or cells: human erythrocytes
Procedure: In this Example, Human erythrocytes acetyl cholinesterase (AChE) was incubated with different concentrations of geranium oil or each of its constituents.
(§1) In the results shown in FIG. 2, the different constituents were incubated with human erythrocytes' acetyl cholinesterase (25 mU/mL). The activity of acetyl cholinesterase was determined using a commercially available kit (acetyl cholinesterase fluorescent activity assay kit, Arbor assays).
Thus, inventors have tested the effect of both enantiomers on the enzymatic activity. […] The different enantiomers of citronellol were incubated with human erythrocytes' acetyl cholinesterase (25 mU/mL). The enzymatic activity was determined using a commercially available kit (acetyl cholinesterase fluorescent activity assay kit, Arbor assays).
as §1, with “In” for “In the results shown in”, “4,” for “2, the”, “constituents of geranium oil (Geraniol, Citronellol (+) and Citronellol formate)” for “constituents”

[2] = tested on: primary microglial cells; assay: peroxyl radical-induced oxidation of DCFH (ROS) in primary microglial cells; type: cell-based; details: microglial cells incubated 1 h with compound; ABAP 0.6 mM; FIG. 1
Procedure: Microglial cells were incubated for one h with (S)(−)citronellol (FIG. 1A) and (R)(+)citronellol (FIG. 1B). Primary cultures of microglial cells has been prepared according to Elmann et al., Journal of Functional Foods 2 (2010), pp. 18. As in Elmann et al. BMC Complementary and Alternative Medicine 2011, 11:98, the cultures of microglial cells were then preloaded with the non-fluorescent cell permeating compound, 2′7′-dichlorofluorescein diacetate (DCF-DA) for 30 min and washed with PBS, after which, 2,2′-Azobis(amidinopropane) (ABAP) (0.6 mM) was added and ROS levels were measured at the indicated time points. Each point on the graph represents mean±SEM of 2 experiments (n=8).

T1 sequence (P22303 32-617 isoform P22303-2 limits assumed): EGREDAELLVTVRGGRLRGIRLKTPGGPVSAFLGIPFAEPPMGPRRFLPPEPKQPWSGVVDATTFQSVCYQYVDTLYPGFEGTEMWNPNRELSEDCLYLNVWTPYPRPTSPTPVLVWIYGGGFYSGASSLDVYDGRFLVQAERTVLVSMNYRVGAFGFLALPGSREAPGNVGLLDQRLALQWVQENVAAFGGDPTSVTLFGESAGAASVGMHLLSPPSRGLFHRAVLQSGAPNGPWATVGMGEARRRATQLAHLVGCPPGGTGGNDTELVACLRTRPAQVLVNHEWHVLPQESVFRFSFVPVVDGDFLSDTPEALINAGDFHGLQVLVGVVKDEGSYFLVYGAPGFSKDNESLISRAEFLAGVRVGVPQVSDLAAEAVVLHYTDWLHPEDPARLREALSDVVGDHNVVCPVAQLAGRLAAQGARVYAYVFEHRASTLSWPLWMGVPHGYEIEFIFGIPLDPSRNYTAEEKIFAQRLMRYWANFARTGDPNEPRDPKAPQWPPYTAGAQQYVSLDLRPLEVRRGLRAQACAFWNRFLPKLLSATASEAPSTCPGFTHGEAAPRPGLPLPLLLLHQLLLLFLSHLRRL

Row | Structure (SMILES) | enzymatic activity of acetyl cholinesterase [1] | enzymatic activity of acetyl cholinesterase ([1]; listed as Citronellol (+)) | peroxyl radical-induced oxidation of DCFH (ROS levels) [2] | enzymatic activity of acetyl cholinesterase ([1]; listed as (S)(−)citronellol)
1 | CC(C)=CCC[C@@H](C)CCO [(R)(+)citronellol, reference compound] | not (R)(+)citronellol could inhibit the enzymatic activity | none of the constituents geraniol, Citronellol (+) and citronellol formate could inhibit AChE activity | inhibit the peroxyl radical-induced oxidation of DCFH | –
2 | CC(C)=CCC[C@H](C)CCO [(S)(−)-citronellol] | inhibited the enzymatic activity | – | inhibit the peroxyl radical-induced oxidation of DCFH | could inhibit the enzymatic activity
3 | CC(C)=CCCC(C)CCOC=O (centres unmarked) [citronellol formate, reference compound] | none of the constituents geraniol, Citronellol (+) and citronellol formate could inhibit AChE activity | – | – | –
4 | CC(C)=CCC/C(C)=C/CO [geraniol, reference compound] | none of the constituents geraniol, Citronellol (+) and citronellol formate could inhibit AChE activity | – | – | –
5 | CC(C)[C@H]1CC[C@@H](C)CC1=O [isomenthone] | inhibited the enzymatic activity | – | – | –
6 | C=CC(C)(O)CCC=C(C)C (centres unmarked) [linalool] | inhibited the enzymatic activity | – | – | –
7 | CC(C)[C@@H]1CC[C@@H](C)CC1=O [menthone] | inhibited the enzymatic activity | – | – | –
